# Laboratory results: patent publication US20250101436A1, “APTAMERS AND SMALL MOLECULE LIGANDS” (MeiraGTx UK II Limited, priority 2021, published 2025)
# Tested on: luciferase gene expression in HEK 293 cells in response to Comp. 004
# Assay: Screen of riboswitch constructs with 12C6-1 variant aptamers (libraries N1-N5) against Comp. 004, luciferase in HEK 293 cells
# Format: cell-based, human
# Conditions: library N1 (J2-4), HEK 293, 25 M [sic] Comp. 004
# Summary of the method: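 Riboswitch constructs carrying 12C6-1 aptamer variants, randomized in J2-4, J2-3/J3-3a/J3a-2/P3, L3a, J4-5/J5-4/P4 or L5 regions (libraries N1-N5), cloned into an intron-exon-intron cassette driving luciferase. Screened in HEK 293 cells with 25 µM Comp. 004; read-out is fold induction of gene expression versus parent Luci-12C6-1.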
row,Substance,Fold (induction of luciferase gene expression)
1,N1_2F11 (CTGGGGAGTCCTTCATGCGGGGC; chemistry not given here),150.18 fold
2,N1_2G4 (CTGGGGAGTCCTTCATGCGGGGC; chemistry not given here),9.06 fold
3,N1_2D11 (CTGGGGAGTCCTTCATGCGGGGC; chemistry not given here),1.96 fold
4,N1_2F9 (CTGGGGAGTCCTTCATGCGGGGC; chemistry not given here),1.71 fold
5,N1_2D1 (CTGGGGAGTCCTTCATGCGGGGC; chemistry not given here),4.38 fold
6,N1_2G10 (CTGGGGAGTCCTTCATGCGGGGC; chemistry not given here),4.40 fold

# Same assay, conditions: library N2 variant aptamers (J2-3, P3-J3-3a, J3a-2 randomized) of 12C6-1 in riboswitch constructs; in response to Comp. 004; HEK 293 cells
row,Substance,Fold (induction of luciferase gene expression)
1,N2_2D4 (DNA CTGGGGAGTCCTTCATGC; chemistry not given here),0.8 fold
2,N2_2E8 (DNA CTGGGGAGTCCTTCATGC; chemistry not given here),0.9 fold
3,N2_2H7 (CTGGGGAGTCCTTCATGC; chemistry not given here),0.8 fold
4,N2_2G7 (DNA CTGGGGAGTCCTTCATGC; chemistry not given here),1.0 fold
5,N2_2G5 (DNA CTGGGGAGTCCTTCATGC; chemistry not given here),1.0 fold
6,N2_2F2 (DNA CTGGGGAGTCCTTCATGC; chemistry not given here),1.0 fold
7,N2_2B6 (CTGGGGAGTCCTTCATGC; chemistry not given here),0.8 fold
8,N2_2A6 (CTGGGGAGTCCTTCATGC; chemistry not given here),1.2 fold
9,N2_2D5 (DNA CTGGGGAGTCCTTCATGC; chemistry not given here),0.6 fold
10,N2_2E10 (DNA CTGGGGAGTCCTTCATGC; chemistry not given here),1.2 fold
11,N2_2C7 (CTGGGGAGTCCTTCATGC; chemistry not given here),0.8 fold
12,N2_2F1 (DNA CTGGGGAGTCCTTCATGC; chemistry not given here),1.1 fold
13,N2_2F11 (DNA CTGGGGAGTCCTTCATGC; chemistry not given here),1.1 fold
14,N2_2C2 (CTGGGGAGTCCTTCATGC; chemistry not given here),0.8 fold

# Same assay, conditions: library N5 variant aptamers (L5, X16-X21 randomized) of 12C6-1 in riboswitch constructs; in response to Comp. 004 treatment; HEK 293 cells
row,Substance,Fold (induction of luciferase gene expression)
1,N5_7C2 (DNA CTGGGGAGTCCT; chemistry not given here),627.0 fold
2,N5_7B3 (CTGGGGAGTCCT; chemistry not given here),756.3 fold
3,N5_9G5 (DNA CTGGGGAGTCCT; chemistry not given here),725.3 fold
4,N5_8C7 (DNA CTGGGGAGTCCT; chemistry not given here),817.6 fold
5,N5_6H10 (CTGGGGAGTCCT; chemistry not given here),1466.1 fold
6,N5_13E8 (CTGGGGAGTCCT; chemistry not given here),2096.6 fold
7,N5_11G4 (CTGGGGAGTCCT; chemistry not given here),931.9 fold
8,N5_7G9 (DNA CTGGGGAGTCCT; chemistry not given here),841.7 fold
9,N5_2B5 (CTGGGGAGTCCT; chemistry not given here),1107.3 fold
10,N5_7A11 (CTGGGGAGTCCT; chemistry not given here),941.2 fold
11,N5_4H7 (CTGGGGAGTCCT; chemistry not given here),714.3 fold
12,N5_1C4 (CTGGGGAGTCCT; chemistry not given here),665.0 fold
13,N5_2G5 (CTGGGGAGTCCT; chemistry not given here),715.9 fold
14,N5_1G4 (CTGGGGAGTCCT; chemistry not given here),86.0 fold
15,N5_1D11 (CTGGGGAGTCCT; chemistry not given here),4.8 fold
16,N5_3F10 (CTGGGGAGTCCT; chemistry not given here),894.3 fold
17,N5_3F9 (CTGGGGAGTCCT; chemistry not given here),909.7 fold
18,N5_7G12 (DNA CTGGGGAGTCCT; chemistry not given here),894.6 fold
19,N5_9H1 (DNA CTGGGGAGTCCT; chemistry not given here),1494.7 fold

row,Substance,Fold (induction of luciferase gene expression)
1,N5_2C2 (CTGGGGAGTCCT; chemistry not given here),894.7 fold
2,N5_2E6 (CTGGGGAGTCCT; chemistry not given here),685.6 fold
3,N5_13G10 (CTGGGGAGTCCT; chemistry not given here),1604.0 fold
4,N5_8A9 (DNA CTGGGGAGTCCT; chemistry not given here),1090.4 fold
5,N5_1E9 (CTGGGGAGTCCT; chemistry not given here),699.7 fold
6,N5_6B4 (CTGGGGAGTCCT; chemistry not given here),1435.7 fold
7,N5_7E8 (DNA CTGGGGAGTCCT; chemistry not given here),879.9 fold
8,N5_1A9 (CTGGGGAGTCCT; chemistry not given here),804.7 fold
9,N5_6D12 (CTGGGGAGTCCT; chemistry not given here),2318.1 fold
10,N5_7E11 (DNA CTGGGGAGTCCT; chemistry not given here),732.1 fold
11,N5_1C3 (CTGGGGAGTCCT; chemistry not given here),664.1 fold
12,N5_1H4 (CTGGGGAGTCCT; chemistry not given here),482.5 fold
13,N5_6F4 (CTGGGGAGTCCT; chemistry not given here),1226.6 fold
14,N5_7C3 (DNA CTGGGGAGTCCT; chemistry not given here),1258.4 fold
15,N5_7D7 (DNA CTGGGGAGTCCT; chemistry not given here),105.5 fold
16,N5_7F9 (DNA CTGGGGAGTCCT; chemistry not given here),642.4 fold
17,N5_5B6 (CTGGGGAGTCCT; chemistry not given here),1068.3 fold
18,N5_1B8 (CTGGGGAGTCCT; chemistry not given here),645.1 fold
19,N5_7E6 (DNA CTGGGGAGTCCT; chemistry not given here),1153.2 fold

row,Substance,Fold (induction of luciferase gene expression)
1,N5_8H1 (DNA CTGGGGAGTCCT; chemistry not given here),1191.9 fold
2,N5_7B12 (CTGGGGAGTCCT; chemistry not given here),908.4 fold
3,N5_7C11 (CTGGGGAGTCCT; chemistry not given here),459.9 fold
4,N5_7F2 (DNA CTGGGGAGTCCT; chemistry not given here),937.4 fold
5,N5_1G10 (CTGGGGAGTCCT; chemistry not given here),1000.2 fold
6,N5_9C2 (DNA CTGGGGAGTCCT; chemistry not given here),1027.6 fold
7,N5_3G12 (CTGGGGAGTCCT; chemistry not given here),756.5 fold
8,N5_3C10 (CTGGGGAGTCCT; chemistry not given here),751.6 fold
9,N5_2G10 (CTGGGGAGTCCT; chemistry not given here),1249.7 fold
10,N5_7F5 (DNA CTGGGGAGTCCT; chemistry not given here),1115.4 fold
11,N5_1B11 (CTGGGGAGTCCT; chemistry not given here),477.1 fold
12,N5_7G6 (DNA CTGGGGAGTCCT; chemistry not given here),902.8 fold
13,N5_1A1 (CTGGGGAGTCCT; chemistry not given here),670.2 fold
14,N5_1E4 (CTGGGGAGTCCT; chemistry not given here),834.9 fold
15,N5_7H11 (DNA CTGGGGAGTCCT; chemistry not given here),1105.2 fold
16,N5_1A7 (CTGGGGAGTCCT; chemistry not given here),659.9 fold
17,N5_4D8 (CTGGGGAGTCCT; chemistry not given here),565.6 fold
18,N5_7F3 (DNA CTGGGGAGTCCT; chemistry not given here),1139.0 fold
19,N5_7A1 (CTGGGGAGTCCT; chemistry not given here),897.3 fold
